In brackets after ≈: the same amount, converted by molar mass. Each block holds one molecule with its values, some of them ahead of it.
How the values were obtained:
VZV strain Ellen = assay: VZV Antiviral (ELISA) Assay in human foreskin fibroblast cells; type: cell-based, varicella-zoster virus; details: for inhibition at 10 µg/mL / IC50: Human alphaherpesvirus 3, Fibroblast; for inhibition at 10 µg/mL: read-out: % inhibition 10 ug/ml VZV, 10 ug/ml; for IC50: read-out: IC50 (ug/ml) VZV
Method: For the generation of stock VZV to be used in the assay, VZV strain Ellen (ATCC #VR-1367) is used to infect human foreskin fibroblast (HFF) cells at low multiplicity (less than 0.1) and incubated overnight at 37° C. in 5% CO2. After the overnight incubation, the mixture of uninfected and VZV-infected HFF infected cells are then harvested and added to each well of 96-well plates (3.5×10^4 cells in 100 μl DMEM supplemented with 2% FBS) which contain test compound or the reference standard drug control (in 100 μl DMEM supplemented with 2% FBS per well). These cells are incubated for three days at 37° C. in 5% CO2, then fixed for ELISA assay. The primary antibody is murine anti-VZV glycoprotein II monoclonal antibody (Applied Biosystems, Inc. #13-145-100) and the secondary antibody is goat anti-mouse IgG linked to β-galactosidase. Thus the extent of viral replication is determined by assessing β-galactosidase activity by quantifying the generation of the 4-methyl umbelliferone fluorescent cleavage product after addition of the methyl umbelliferyl-β-D-galactoside (Sigma #M1633) substrate on a microfluorimeter (365 nm for excitation and 450 nm for emission). Antiviral activity (IC50) of the test compound is determined by comparing the flourescence obtained in absence of compound to that obtained in the presence of compound.

HSV-1 = assay: HSV Antiviral (ELISA) Assay in Vero cells; type: cell-based, herpes simplex virus type 1; details: HSV-1, Vero cells; for IC50: Human alphaherpesvirus 1, read-out: IC50 (ug/ml) HSV
Method: Vero cells (ATCC #CCL-81) are plated on 96-well tissue culture plates at 3.5×10^4 cells per 100 μl tissue culture DMEM (Dulbeccos modified Eagle media) supplemented with 2% fetal bovine serum (FBS) in each well. After overnight incubation @ 37° C. (in 5% CO2) and 30 minutes prior to infection with HSV-1 (multiplicity of infection equal to 0.006), cells are either untreated, or treated with test compound (multiple concentrations) or reference standard drug control. After approximately 24 hours post-infection incubation @ 37° C. (in 5% CO2), cells are fixed for ELISA assay. The primary antibody is murine anti-HSV glycoprotein D monoclonal primary antibody and the secondary antibody is goat anti-mouse IgG linked to β-galactosidase. Thus the extent of viral replication is determined by assessing β-galactosidase activity by quantifying the generation of the 4-methyl umbelliferone fluorescent cleavage product after addition of the methyl umbelliferyl-β-D-galactoside (Sigma #M1633) substrate on a microfluorimeter (365 nm for excitation and 450 nm for emission). Antiviral activity (IC50) of the test compound is determined by comparing the flourescence obtained in absence of compound to that obtained in the presence of compound.

SMILES: COc1ccc(NC(=S)Nc2ccc(NC(=O)c3cccc(F)c3)cc2)cc1Cl [Example 822, N-{4-[3-(3-Chloro-4-methoxy-phenyl)-thioureido]-phenyl}-3-fluoro-benzamide]
- inhibition at 10 µg/mL (VZV strain Ellen): 0%
- IC50 (VZV strain Ellen): > 10 µg/mL

- IC50 (HSV-1): > 10 µg/mL
SMILES: CC(NC(=S)Nc1ccc(NC(=O)c2ccc(C#N)cc2)cc1)c1ccc(F)cc1 (stereo not shown) [Example 1022, 4-Cyano-N-(4-{3-[1-(4-fluoro-phenyl)-ethyl]-thioureido}-phenyl)-benzamide]
- IC50 (VZV strain Ellen): 1.5 µg/mL (≈ 3.58 µM)

SMILES: COc1cc(OCC(F)(F)F)ccc1NC(=S)Nc1ccc(NC(=O)c2ccccc2F)cc1 [Example 1006, 2-Fluoro-N-(4-{3-[2-methoxy-4-(2,2,2-trifluoro-ethoxy)-phenyl]-thioureido}-phenyl)-benzamide]
- IC50 (VZV strain Ellen): 11 µg/mL (≈ 22.3 µM)

SMILES: COc1ccc(NC(=S)Nc2ccc(NC(=O)c3ccccc3F)cc2)cc1I [Example 810]
- IC50 (VZV strain Ellen): > 7.5 µg/mL

SMILES: O=C(Nc1ccc(NC(=S)Nc2ccc(I)c(Cl)c2)cc1)c1ccccc1F [Example 916, N-{4-[3-(3-Chloro-4-iodo-phenyl)-thioureido]-phenyl}-2-fluoro-benzamide]
- inhibition at 10 µg/mL (VZV strain Ellen): 30%
- IC50 (VZV strain Ellen): > 10 µg/mL

- IC50 (HSV-1): > 10 µg/mL
SMILES: COc1ccc(C(=O)Nc2ccc(NC(=S)Nc3cc(Cl)c(OC)c(Cl)c3)cc2)cc1 [Example 880, N-{4-[3-(3,5-Dichloro-4-methoxy-phenyl)-thioureido]-phenyl}-4-methoxy-benzamide]
- inhibition at 10 µg/mL (VZV strain Ellen): 30%
- IC50 (VZV strain Ellen): > 10 µg/mL

- IC50 (ug/ml) HSV (HSV-1): >10 µg/mL
SMILES: Cc1nc2cc(NC(=S)Nc3ccc(NC(=O)c4ccccc4F)cc3)ccc2[nH]1 [Example 497]
- IC50 (ug/ml) VZV (VZV strain Ellen): >10 µg/mL
- % inhibition 10 ug/ml VZV (VZV strain Ellen): 10%

- IC50 (HSV-1): > 10 µg/mL
SMILES: C[C@@H](NC(=S)Nc1ccc(NC(=O)c2ccccc2F)cc1)c1ccccc1 [Example 1016, 2-Fluoro-N-{4-[3-((1R)-1-phenyl-ethyl)-thioureido]-phenyl}-benzamide]
- IC50 (VZV strain Ellen): > 7.5 µg/mL

- IC50 (HSV-1): > 10 µg/mL
SMILES: CC(NC(=S)Nc1ccc(NC(=O)c2cc3ccccc3o2)cc1)c1ccc(C#N)cc1 (stereo not shown) [Example 983, Benzofuran-2-carboxylic acid (4-{3-[1-(4-cyano-phenyl)-ethyl]-thioureido}-phenyl)-amide]
- IC50 (VZV strain Ellen): 0.6 µg/mL (≈ 1.36 µM)

SMILES: COc1cc(OC)c(NC(=S)Nc2ccc(NC(=O)c3cccc(NS(C)(=O)=O)c3)cc2)cc1Cl [Example 137]
- IC50 (ug/ml) VZV (VZV strain Ellen): >15 µg/mL
- % inhibition 10 ug/ml VZV (VZV strain Ellen): 72%

- IC50 (HSV-1): 1 µg/mL (≈ 2.43 µM)
SMILES: COc1ccc(NC(=S)Nc2ccc(NC(=O)c3ccccc3)cc2)cc1Cl [Example 817, N-{4-[3-(3-Chloro-4-methoxy-phenyl)-thioureido]-phenyl}-benzamide]
- inhibition at 10 µg/mL (VZV strain Ellen): 66%
- IC50 (VZV strain Ellen): 12 µg/mL (≈ 29.1 µM)

SMILES: CC(C)(C)c1cccc(NC(=S)Nc2ccc(NC(=O)c3ccccc3F)cc2)c1 [Example 869, N-{4-[3-(3-tert-Butyl-phenyl)-thioureido]-phenyl}-2-fluoro-benzamide]
- inhibition at 10 µg/mL (VZV strain Ellen): 77%
- IC50 (VZV strain Ellen): 3 µg/mL (≈ 7.12 µM)

- IC50 (HSV-1): > 10 µg/mL
SMILES: CC(NC(=S)Nc1ccc(NC(=O)c2ccccc2F)cc1)c1cccc(C#N)c1 (stereo not shown) [Example 791]
- IC50 (VZV strain Ellen): 7 µg/mL (≈ 16.7 µM)

- IC50 (HSV-1): > 10 µg/mL
SMILES: CC(NC(=S)Nc1ccc(NC(=O)c2nccc3ccccc23)cc1)c1ccc(C#N)cc1 (stereo not shown) [Example 979, Isoquinoline-1-carboxylic acid (4-{3-[1-(4-cyano-phenyl)-ethyl]-thioureido}-phenyl)-amide]
- IC50 (VZV strain Ellen): 0.13 µg/mL (≈ 0.288 µM)

SMILES: CC(NC(=S)Nc1ccc(NC(=O)c2nccc3ccccc23)cc1)c1ccc(F)cc1 (stereo not shown) [Example 1110]
- IC50 (ug/ml) VZV (VZV strain Ellen): 0.05 µg/mL (≈ 0.112 µM)

SMILES: CC(NC(=S)Nc1ccc(NC(=O)c2ccc3ncccc3c2)cc1)c1ccc(F)cc1 (stereo not shown) [Example 990, Quinoline-6-carboxylic acid (4-{3-[1-(4-fluoro-phenyl)-ethyl]-thioureido}-phenyl)-amide]
- IC50 (VZV strain Ellen): 3.5 µg/mL (≈ 7.87 µM)

SMILES: C[C@@H](NC(=S)Nc1ccc(NC(=O)c2ccccc2F)cc1)c1ccc(Br)cc1 [Example 1005, N-(4-{3-[(1R)-1-(4-Bromo-phenyl)-ethyl]-thioureido}-phenyl)-2-fluoro-benzamide]
- IC50 (HSV-1): 2.9 µg/mL (≈ 6.14 µM)
- IC50 (VZV strain Ellen): 4.3 µg/mL (≈ 9.1 µM)

SMILES: C[C@H](NC(=S)Nc1ccc(NC(=O)c2nccc3ccccc23)cc1)c1ccc(Cl)cc1 [Example 1109]
- IC50 (VZV strain Ellen): 0.03 µg/mL (≈ 0.0651 µM)

SMILES: CC(NC(=S)Nc1ccc(NC(=O)c2ccccc2F)cc1)c1ccc(C(F)(F)F)cc1F (stereo not shown) [Example 1106]
- IC50 (VZV strain Ellen): > 7.5 µg/mL

- IC50 (HSV-1): > 10 µg/mL
SMILES: CC(NC(=S)Nc1ccc(NC(=O)c2ccccc2F)cc1)c1cccc(C(F)(F)F)c1 (stereo not shown) [Example 786]
- IC50 (VZV strain Ellen): > 7.5 µg/mL

SMILES: COc1ccc(NC(=S)Nc2ccc(NC(=O)c3ccc(F)cc3)cc2)cc1Cl [Example 823, N-{4-[3-(3-Chloro-4-methoxy-phenyl)-thioureido]-phenyl}-4-fluoro-benzamide]
- inhibition at 10 µg/mL (VZV strain Ellen): 7%
- IC50 (VZV strain Ellen): > 10 µg/mL

SMILES: CC(NC(=S)Nc1ccc(NC(=O)c2ccnc3ccccc23)cc1)c1ccc(F)cc1 (stereo not shown) [Example 989, Quinoline-4-carboxylic acid (4-{3-[1-(4-fluoro-phenyl)-ethyl]-thioureido}-phenyl)-amide]
- IC50 (VZV strain Ellen): 3 µg/mL (≈ 6.75 µM)

- IC50 (ug/ml) HSV (HSV-1): >10 µg/mL
SMILES: Cc1cc(C)cc(CNC(=S)Nc2ccc(NC(=O)c3ccccc3F)cc2)c1 [Example 725]

SMILES: O=C(Nc1ccc(NC(=S)NCc2ccc(F)c(C(F)(F)F)c2)cc1)c1ccccc1F [Example 623]
- IC50 (VZV strain Ellen): > 10 µg/mL

SMILES: CC(NC(=S)Nc1ccc(NC(=O)c2ccccc2I)cc1)c1ccc(F)cc1 (stereo not shown) [Example 812]
- IC50 (VZV strain Ellen): 3.4 µg/mL (≈ 6.55 µM)

SMILES: O=C(Nc1ccc(NC(=S)NCc2ccc(N3CCCCC3)c(C(F)(F)F)c2)cc1)c1ccccc1F [Example 616]
- IC50 (ug/ml) VZV (VZV strain Ellen): >10 µg/mL

SMILES: COc1ccc(NC(=S)Nc2ccc(NC(=O)c3ccccc3OC)cc2)cc1Cl [Example 818, N-{4-[3-(3-Chloro-4-methoxy-phenyl)-thioureido]-phenyl}-2-methoxy-benzamide]
- inhibition at 10 µg/mL (VZV strain Ellen): 32%
- IC50 (VZV strain Ellen): > 10 µg/mL

- IC50 (ug/ml) HSV (HSV-1): >10 µg/mL
SMILES: CC(C)(C)c1ccc(CNC(=S)Nc2ccc(NC(=O)c3ccccc3F)cc2)cc1 [Example 724]

- IC50 (ug/ml) HSV (HSV-1): >10 µg/mL
SMILES: CC(C)(NC(=S)Nc1ccc(NC(=O)c2ccccc2F)cc1)c1ccccc1 [Example 727]

SMILES: O=C(Nc1ccc(NC(=S)NCc2cc(F)cc(C(F)(F)F)c2)cc1)c1ccccc1F [Example 586]
- IC50 (VZV strain Ellen): > 10 µg/mL

SMILES: COc1cc(OC)c(NC(=S)Nc2ccc(NC(=O)c3ccccc3-c3ccccc3)cc2)cc1Cl [Example 182]
- IC50 (ug/ml) VZV (VZV strain Ellen): >10 µg/mL
- % inhibition 10 ug/ml VZV (VZV strain Ellen): 32%

SMILES: O=C(Nc1ccc(NC(=S)Nc2ccc(C(F)(F)F)c(Cl)c2)cc1)c1ccccc1F [Example 911, N-{4-[3-(3-Chloro-4-trifluoromethyl-phenyl)-thioureido]-phenyl}-2-fluoro-benzamide]
- inhibition at 10 µg/mL (VZV strain Ellen): 38%
- IC50 (VZV strain Ellen): > 10 µg/mL

SMILES: CCC(C)Cc1cc(NC(=S)Nc2ccc(NC(=O)c3ccccc3F)cc2)cc(C(F)(F)F)c1 (stereo not shown) [Example 577]
- IC50 (ug/ml) VZV (VZV strain Ellen): >7.5 µg/mL

SMILES: CC(C)Cc1cc(NC(=S)Nc2ccc(NC(=O)c3ccccc3F)cc2)cc(C(F)(F)F)c1 [Example 578]
- IC50 (ug/ml) VZV (VZV strain Ellen): >10 µg/mL

SMILES: O=C(Nc1ccc(NC(=S)NCCOc2ccccc2)cc1)c1ccccc1F [Example 625]
- IC50 (VZV strain Ellen): 4 µg/mL (≈ 9.77 µM)

- IC50 (ug/ml) HSV (HSV-1): >10 µg/mL
SMILES: O=C(Nc1ccc(NC(=S)NCCc2ccccc2F)cc1)c1ccccc1F [Example 721]

SMILES: CC(NC(=S)Nc1ccc(NC(=O)c2ccccc2C#N)cc1)c1ccc(F)cc1 (stereo not shown) [Example 993, 2-Cyano-N-(4-{3-[1-(4-fluoro-phenyl)-ethyl]-thioureido}-phenyl)-benzamide]
- IC50 (VZV strain Ellen): 2.7 µg/mL (≈ 6.45 µM)

SMILES: O=C(Nc1ccc(NC(=S)NCc2cc(F)cc(F)c2)cc1)c1ccccc1F [Example 580]
- IC50 (ug/ml) VZV (VZV strain Ellen): >10 µg/mL

SMILES: COc1cc(OC)c(NC(=S)Nc2ccc(NC(=O)c3ccccc3C)cc2)cc1Br [Example 829, N-{4-[3-(5-Bromo-2,4-dimethoxy-phenyl)-thioureido]-phenyl}-2-methyl-benzamide]
- inhibition at 10 µg/mL (VZV strain Ellen): 50%
- IC50 (VZV strain Ellen): > 15 µg/mL

SMILES: CSc1ccc(NC(=S)Nc2ccc(NC(=O)c3c(F)cccc3F)cc2)cc1Cl [Example 848, N-{4-[3-(3-Chloro-4-methylsulfanyl-phenyl)-thioureido]-phenyl}-2,6-difluoro-benzamide]
- inhibition at 10 µg/mL (VZV strain Ellen): 101%
- IC50 (VZV strain Ellen): 1.3 µg/mL (≈ 2.8 µM)

SMILES: O=C(Nc1ccc(NC(=S)NCc2cc(Cl)cc(Cl)c2)cc1)c1ccccc1F [Example 583]
- IC50 (ug/ml) VZV (VZV strain Ellen): 10 µg/mL (≈ 22.3 µM)
